Tested on: subjects with moderately to severely active RA who have an inadequate response to methotrexate (MTX)
Assay: Study 2 (monotherapy) - ACR responses (ACR20/50/70)
Type: in vivo, human
Text: The terms “ACR20”, “ACR50” and “ACR70” as used herein are scores which indicate how much a patient's rheumatoid arthritis has improved according to criteria set out by the American College of Rheumatology (ACR). The ACR score represents a percentage. An ACR20 score means that a person's RA has improved by 20%, an ACR50 score means it has improved by 50%, and an ACR70 score means it has improved by 70%. Specifically, to qualify for an ACR20 score, a person with RA must have at least 20% fewer tender joints and at least 20% fewer swollen joints. In addition the patient must show a 20% improvement in at least three of the following five areas: the person's overall (global) assessment of his or her own RA, the physician's global assessment of the person's RA, the person's assessment of his or her own pain, the person's assessment of his or her own physical functioning, and the results of an erythrocyte sedimentation rate or C-reactive protein (CRP) blood test (both of which test for inflammation). ACR50 and ACR70 scores use the same criteria but require 50% and 70% improvement, respectively, (Felson et al., 1993). In the data presented herein the CRP blood test is used.
Randomized, double-blind, placebo-controlled, multicenter, phase IIb dose finding study of Compound 1 (dosed as a [Compound 1:HCl:3H2O]) administered for 24 weeks as monotherapy to subjects with moderately to severely active rheumatoid arthritis who have an inadequate response to methotrexate alone
Double-blind, placebo-controlled, monotherapy study in subjects with moderately to severely active RA who have an inadequate response to methotrexate (MTX) (oral or parenteral).
280 subjects randomized to one of 3 doses of Compound 1 (dosed as a [Compound 1:HCl:3H2O]) or to placebo, given once daily (q.d.).
Twelve weeks of treatment with Compound 1 (dosed as a [Compound 1:HCl:3H2O]) at 50 mg, 100 mg, or 200 mg q.d.; or placebo. At Week 12, all subjects on placebo and the subjects on the 50 mg dose who have not achieved 20% improvement in swollen joint count (SJC66) and tender joint count (TJC68) will be assigned to 100 mg q.d. in a blinded fashion and will continue treatment until Week 24. Subjects in the other groups will maintain their randomized treatment until Week 24.
The American College of Rheumatology (ACR) composite score, which evaluates clinical improvement relative to an initial assessment, is a commonly accepted efficacy end point for clinical trials in patients with rheumatoid arthritis. The ACR score correspond to a percentage improvement in pre-set parameters, and therefore measures the evolution of the disease in a patient. For example, ACR20 denotes at least 20% improvement in tender and swollen joint counts and in three of the following end points: global assessment by the patient, global assessment by the doctor, C reactive protein (CRP), patient's pain Visual Analogue Scale and Health Assessment Questionnaire Score. The number of swollen joints, ESR and CRP correlate with radiographic progression of joint damage, whereas tender joint counts, as well as global assessments by doctors and patients, and patients' reports of pain, are sensitive to change in clinical outcomes. Physical function, as assessed by the Health Assessment Questionnaire Score, is a potent predictor of the risk of disability in rheumatoid arthritis (Felson and American College of Rheumatology Committee to Reevaluate Improvement Criteria, 2007; Felson et al., 1993).
In particular, the list of parameters used to assess ACR score can be found in the Table XCVI below and the results of the ACR responses at week 12 via either NRI or LOCF are shown in the tables below. The Hommel-corrected p-value for the pairwise comparisons of each group with placebo is shown. […]

[1] = 50 mg q.d., week 1, 12 weeks results
[2] = 50 mg q.d., week 1, 24 weeks results
[3] = 50 mg q.d., week 2, 12 weeks results
[4] = 50 mg q.d., week 2, 24 weeks results
[5] = 50 mg q.d., week 4, 12 weeks results
[6] = 50 mg q.d., week 4, 24 weeks results
[7] = 50 mg q.d., week 12, 12 weeks results
[8] = 50 mg q.d., week 12, 24 weeks results
[9] = 50 mg q.d., week 16, 24 weeks results
[10] = 50 mg q.d., week 20, 24 weeks results
[11] = 50 mg q.d., week 24, 24 weeks results
[12] = 50 mg q.d., week 8, 12 weeks results
[13] = 50 mg q.d., week 8, 24 weeks results
[14] = 100 mg q.d., week 1, 12 weeks results
[15] = 100 mg q.d., week 1, 24 weeks results
[16] = 100 mg q.d., week 2, 12 weeks results
[17] = 100 mg q.d., week 2, 24 weeks results

O=C(Nc1nc2cccc(-c3ccc(CN4CCS(=O)(=O)CC4)cc3)n2n1)C1CC1 [Compound 1, cyclopropanecarboxylic acid {5-[4-(1,1-dioxo-thiomorpholin-4-ylmethyl)-phenyl]-[1,2,4]triazolo[1,5-a]pyridin-2-yl}-amide]
ACR20 (LOCF) [1]: 20.8
ACR20 (NRI) [1]: 22.2%
ACR50 (LOCF) [1]: 1.4%
ACR50 (NRI) [1]: 1.4%
ACR70 (LOCF) [1]: 0.0%
ACR70 (NRI) [1]: 0.0%
ACR20 (LOCF) [2]: 22.2
ACR20 (NRI) [2]: 22.2%
ACR50 (LOCF) [2]: 1.4%
ACR50 (NRI) [2]: 1.4%
ACR70 (LOCF) [2]: 0.0%
ACR70 (NRI) [2]: 0.0%
ACR20 (LOCF) [3]: 33.3%
ACR20 (NRI) [3]: 34.7%
ACR50 (LOCF) [3]: 5.6%
ACR50 (NRI) [3]: 5.6%
ACR70 (LOCF) [3]: 1.4%
ACR70 (NRI) [3]: 1.4%
ACR20 (LOCF) [4]: 33.3%
ACR20 (NRI) [4]: 33.3%
ACR50 (LOCF) [4]: 5.6%
ACR50 (NRI) [4]: 5.6%
ACR70 (LOCF) [4]: 1.4%
ACR70 (NRI) [4]: 1.4%
ACR20 (LOCF) [5]: 54.2%
ACR20 (NRI) [5]: 54.2%
ACR50 (LOCF) [5]: 13.9%
ACR50 (NRI) [5]: 15.3%
ACR70 (LOCF) [5]: 8.3%
ACR70 (NRI) [5]: 8.3%
ACR20 (LOCF) [6]: 52.8%
ACR20 (NRI) [6]: 52.8%
ACR50 (LOCF) [6]: 15.3%
ACR50 (NRI) [6]: 15.3%
ACR70 (LOCF) [6]: 8.3%
ACR70 (NRI) [6]: 8.3%
ACR50 (NRI) [7]: 36.1%%
ACR70 (NRI) [7]: 8.3%%
ACR50 (NRI) [8]: 34.7%
ACR70 (NRI) [8]: 8.3%
ACR50 (NRI) [9]: 33.3%
ACR70 (NRI) [9]: 15.3%
ACR50 (NRI) [10]: 27.8%
ACR70 (NRI) [10]: 12.5%
ACR50 (NRI) [11]: 31.9%
ACR70 (NRI) [11]: 19.4%
ACR20 (LOCF) [12]: 62.5%
ACR20 (NRI) [12]: 61.1%
ACR50 (LOCF) [12]: 16.7%
ACR50 (NRI) [12]: 16.7%
ACR70 (LOCF) [12]: 6.9%
ACR70 (NRI) [12]: 6.9%
ACR20 (LOCF) [13]: 61.1%
ACR20 (NRI) [13]: 61.1%
ACR50 (LOCF) [13]: 16.7%
ACR50 (NRI) [13]: 16.7%
ACR70 (LOCF) [13]: 6.9%
ACR70 (NRI) [13]: 6.9%
ACR20 (LOCF) [14]: 24.3%
ACR20 (NRI) [14]: 24.3%
ACR50 (LOCF) [14]: 10.0%
ACR50 (NRI) [14]: 10.0%
ACR70 (LOCF) [14]: 1.4%
ACR70 (NRI) [14]: 1.4%
ACR20 (LOCF) [15]: 24.3%
ACR20 (NRI) [15]: 24.3%
ACR50 (LOCF) [15]: 10.0%
ACR50 (NRI) [15]: 10.0%
ACR70 (LOCF) [15]: 1.4%
ACR70 (NRI) [15]: 1.4%
ACR20 (LOCF) [16]: 34.3%
ACR20 (NRI) [16]: 32.9%
ACR50 (LOCF) [16]: 8.6%
ACR50 (NRI) [16]: 7.1%
ACR70 (LOCF) [16]: 1.4%
ACR70 (NRI) [16]: 1.4%
ACR20 (LOCF) [17]: 35.7%
ACR20 (NRI) [17]: 32.9%
ACR50 (LOCF) [17]: 8.6%
ACR50 (NRI) [17]: 7.1%
ACR70 (LOCF) [17]: 1.4%
ACR70 (NRI) [17]: 1.4%
ACR20 (LOCF) (100 mg q.d., week 4, 12 weeks results): 44.3%

— patent publication US20180200257A1, “METHODS FOR THE TREATMENT OF INFLAMMATORY DISORDERS” (Galapagos NV, priority 2015, published 2018)
